Source: patent US10688093B2, “Methods, compositions, and uses of novel Fyn kinase inhibitors” (priority 2015, dated 2020)

What follows are compounds tested against full-length recombinant human FYN A (Homo sapiens (Human), UniProt P06241) (assay: ADP-Glo Kinase Assay of FYN kinase inhibition). Conditions: primary screen, initial compounds.
Assay type: biochemical
How it was run: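 GST-tagged full-length FYN A (baculovirus, Sf9) at 3 pg preincubated 30 min RT with compound (10-point 3-fold series from 10 μM) in Tris pH 7.5/MgCl2 buffer. 12-mer tyrosine peptide plus 12.5 pmol ATP added, 90 min RT; ADP measured by ADP-Glo luminescence, IC50 from dose-response.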

Chain of full-length recombinant human FYN A (P06241 whole entry): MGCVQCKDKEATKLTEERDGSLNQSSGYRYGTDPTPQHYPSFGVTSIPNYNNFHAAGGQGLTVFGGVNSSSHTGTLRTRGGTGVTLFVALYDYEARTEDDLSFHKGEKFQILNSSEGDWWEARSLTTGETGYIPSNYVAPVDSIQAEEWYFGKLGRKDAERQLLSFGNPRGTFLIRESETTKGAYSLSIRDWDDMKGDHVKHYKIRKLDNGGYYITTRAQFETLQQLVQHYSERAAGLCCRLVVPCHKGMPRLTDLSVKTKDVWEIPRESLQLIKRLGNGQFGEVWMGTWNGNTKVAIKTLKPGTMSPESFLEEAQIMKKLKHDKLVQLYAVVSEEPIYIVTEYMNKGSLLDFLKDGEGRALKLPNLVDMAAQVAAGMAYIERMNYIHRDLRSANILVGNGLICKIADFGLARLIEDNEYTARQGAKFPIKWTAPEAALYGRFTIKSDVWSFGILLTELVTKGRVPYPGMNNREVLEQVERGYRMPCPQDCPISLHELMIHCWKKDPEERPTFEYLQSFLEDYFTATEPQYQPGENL

| Compound | IC50 [µM] |
| --- | --- |
| Fc1ccc(-c2cnc3sc(NCCN4CCOCC4)nn23)cc1Cl [Compound 561, 5-(3-chloro-4-fluoro-phenyl)-N-(2-morpholino-ethyl)imidazo [2,1-b][1,3,4] thiadiazol-2-amine] | 4.82 |
| c1cc(CCNc2nn3c(-c4ccncc4)cnc3s2)ccn1 [Compound 562] | 2.43 |
| COc1ccc(-c2cnc3sc(NC4CCC(O)CC4)nn23)cn1 (stereo not drawn) [Compound 563, 4-[[5-(6-methoxy-3-pyridyl)imidazo[2,1-b] [1,3,4]thiadiazol-2-yl]amino] cyclohexanol] | 1.61 |
| CC(=O)c1ccc(-c2cnc3sc(NCCN4CCOCC4)nn23)s1 [Compound 564, 1-[5-[2-(2-morpholinoethyl-amino)imidazo [2,1-b][1,3,4]thiadiazol-5-yl]-2-thienyl] ethanone] | 3 |
| COc1ccccc1-c1cc(NC(C)=O)c2ncc(-c3cccc(C(C)=O)c3)n2c1 [Compound 565, N-[3-(3-acetylphenyl)-6-[2-methoxy-phenyl)imidazo [1,2-a]pyridin-8-yl]acetamide] | 1.58 |
| CS(=O)(=O)Nc1cccc(-c2cc(NC=O)c3ncc(-c4ccc(F)c(Cl)c4)n3c2)c1 [Compound 566, N-[3-(3-chloro-4-fluoro-phenyl)-6-[3-(methane-sulfonamido)phenyl]imidazo [1,2-a]pyridin-8-yl]formamide] | 2.86 |
| c1csc(CNc2nn3c(-c4ccncc4)cnc3s2)c1 [Compound 567, 5-(4-pyridyl)-N-(2-thienylmethyl) imidazo[2,1-b] [1,3,4]thiadiazol-2-amine] | 3.62 |
| CS(=O)(=O)Nc1cccc(-c2cnc3sc(NC4CCCCC4)nn23)c1 [Compound 568, N-[3-[2-(cyclohexylamino)imidazo[2,1-b] [1,3,4]thiadiazol-5-yl]phenyl] methane-sulfonamide] | 4.33 |
| CC(C)CNc1nn2c(-c3cccc(C(N)=O)c3)cnc2s1 [Compound 569, 3-[2-(isobutylamino)imidazo[2,1-b] [1,3,4]thiadiazol-5-yl]benzamide] | 1.13 |
| OC1CCC(Nc2nn3c(-c4cccc(F)c4)cnc3s2)CC1 (stereo not drawn) [Compound 571, 4-[[5-(3-fluorophenyl)imidazo[2,1-b] [1,3,4]thiadiazol-2-yl]amino] cyclohexanol] | 2.92 |
| COc1ccc(-c2cnc3sc(NC4CCC(O)CC4)nn23)cc1OC (stereo not drawn) [Compound 572, 4-[[5-(3,4-dimethoxyphenyl)imidazo[2,1-b] [1,3,4]thiadiazol-2-yl]amino] cyclohexanol] | 0.483 |
| c1cncc(-c2cnc3sc(NCc4cccs4)nn23)c1 [Compound 573, 5-(3-pyridyl)-N-(2-thienylmethyl) imidazo[2,1-b] [1,3,4]thiadiazol-2-amine] | 1.94 |
| COc1ccc(-c2cnc3sc(NCc4ccncc4)nn23)cc1OC [Compound 574, 5-(3,4-dimethoxy-phenyl)-N-(4-pyridylmethyl) imidazo[2,1-b] [1,3,4]thiadiazol-2-amine] | 2.13 |
| CC(=O)Nc1cc(-c2ccc(N)cc2)cn2c(-c3ccc(F)cc3)cnc12 [Compound 575, N-[6-(4-aminophenyl)-3-(4-fluorophenyl)imidazo[1,2-a]pyridin-8-yl]acetamide] | 5.25 |
| Cn1cc(-c2cc(NC=O)c3ncc(-c4ccc(F)cc4)n3c2)cn1 [Compound 576, N-[3-(4-fluorophenyl)-6-(1-methylpyrazol-4-yl)imidazo[1,2-a]pyridin-8-yl]formamide] | 8.09 |
| COc1cccc(-n2c(N)c(C(N)=O)c3nc4ccccc4nc32)c1 [Compound 577, 2-amino-1-(3-methoxyphenyl) pyrrolo[3,2-b]quinoxaline-3-carboxamide] | 1.18 |
| Fc1cccc(-c2cnc3sc(NC4CCCCC4)nn23)c1 [Compound 578, N-cyclohexyl-5-(3-fluorophenyl) imidazo[2,1-d] [1,3,4]thiadiazol-2-amine] | 4.08 |
| c1cncc(-c2cnc3sc(NCc4ccco4)nn23)c1 [Compound 579, N-(2-furylmethyl)-5-(3-pyridyl)imidazo [2,1-a][1,3,4] thiadiazol-2-amine] | 3.16 |
